# In US20090317383A1, “CANCER TREATMENT METHOD” (priority 2004, published 2009):
# How the values were obtained:
# EGFR and erbB2 kinases = details: Rusnak et al., 2001b; Xia et al., 2002; cited from earlier work
# [1] = tested on: tumor cells overexpressing EGFR or erbB2; details: Rusnak et al., 2001b; Xia et al., 2002; cited from earlier work
# [2] = tested on: HER-2/neu transfected MCF-7 cell line; assay: Cell growth, MTT tetrazolium dye assay; format: cell-based, human; details: 1-10 uM
# Experimental: (§1) The effect of a combination of lapatanib with a Bcl-2 inhibitor (HA14-1) on the growth of MCF-7 human breast cancer cells, a HER-2/neu transfected MCF-7 cell line and a tamoxifen (TAM) resistant MCF-7 cell line was examined. Cell growth was determined using the MTT tetrazolium dye assay. Cells were dosed with Lapatinib and HA14-1 as monotherapies.
# [3] = tested on: tamoxifen (TAM) resistant MCF-7 cell line; assay: Cell growth, MTT tetrazolium dye assay; format: cell-based, human; details: 1-10 uM
# Experimental: as §1
# [4] = tested on: MCF-7 human breast cancer cells; assay: Cell growth, MTT tetrazolium dye assay; format: cell-based; details: 1-10 uM
# Experimental: as §1
# BT474 tumors = assay: BT474 vs. Lapatinib and Docetaxel Combination (mice with BT474 tumors); format: in vivo
# Experimental: Mice with BT474 tumors were administered lapatinib alone (200 and 100 mg/kg; SID×21 Days, or 2 days and 1 day before docetaxel) and in combination with docetaxel (25 and 50 mg/kg IP, once weekly×3 weeks).
# In the first experiment there were no deaths, and in the second experiment there was one death in a group of eight mice receiving docetaxel (25 mg/kg) and lapatinib (200 mg/kg×21 days). All surviving mice rapidly regained body weight when dosing was completed. The treatment groups and results follow.
smiles,measurement,setting,value
"CS(=O)(=O)CCNCc1ccc(-c2ccc3ncnc(Nc4ccc(OCc5cccc(F)c5)c(Cl)c4)c3c2)o1 [GW572016, N-{3-chloro-4-[(3-fluorobenzyl)oxy]phenyl}-6-[5-({[2-(methanesulphonyl)ethyl]amino}methyl)-2-furyl]-4-quinazolinamine]",Kinase inhibition in human xenograft studies,EGFR and erbB2 kinases,dose-dependent kinase inhibition
same,Selectivity of tumor cell inhibition,[1],selectively inhibits tumor cells overexpressing EGFR or erbB2
"CCOC(=O)C1=C(N)Oc2ccc(Br)cc2C1C(C#N)C(=O)OCC (stereo not drawn) [HA14-1, ethyl [2-amino-6-bromo-4-(1-cyano-2-ethoxy-2oxoethyl)]4H-chromene-3-carboxylate, reference compound]","Cell growth inhibition, monotherapy",[2],dose-dependent growth inhibition
same,"Cell growth inhibition, monotherapy",[3],dose-dependent growth inhibition
same,"Cell growth inhibition, monotherapy",[4],dose-dependent growth inhibition
"CC(=O)O[C@@]12CO[C@@H]1C[C@H](O)[C@@]1(C)C(=O)[C@H](O)C3=C(C)[C@@H](OC(=O)[C@H](O)[C@@H](NC(=O)OC(C)(C)C)c4ccccc4)C[C@@](O)([C@@H](OC(=O)c4ccccc4)[C@H]21)C3(C)C [docetaxel, (2R,3S)-N-carboxy-3-phenylisoserine,N-tert-butyl ester, 13-ester with 5β-20-epoxy-1,2α,4,7β,10β,13α-hexahydroxytax-11-en-9-one 4-acetate 2-benzoate, trihydrate]",Body weight,"BT474 tumors; 25 and 50 mg/kg, after 3 weekly doses, both experiments",caused weight loss
same,% Inhibition,"BT474 tumors; Tax-25 (25 mg/kg IP), Days 3, 10, 17",77%
same,% Inhibition,"BT474 tumors; Tax-50 (50 mg/kg IP), Days 3, 10, 17",98%
same,Efficacy against BT474 tumors (in words),"BT474 tumors; docetaxel at 50 mg/kg, both experiments",highly effective
"CS(=O)(=O)CCNCc1ccc(-c2ccc3ncnc(Nc4ccc(OCc5cccc(F)c5)c(Cl)c4)c3c2)o1.Cc1ccc(S(=O)(=O)O)cc1 [lapatinib, N-{3-Chloro-4-[(3-fluorobenzyl)oxy]phenyl}-6-[5-({[2-(methanesulphonyl)ethyl]amino}methyl)-2-furyl]-4-quinazolinamine ditosylate monhydrate]","Cell growth inhibition, monotherapy",[2],dose-dependent growth inhibition
same,"Cell growth inhibition, monotherapy",[3],dose-dependent growth inhibition
same,% Inhibition,"BT474 tumors; GW016-100 (100 mg/kg), sid × 21 days",79%
same,% Inhibition,"BT474 tumors; GW016-200 (200 mg/kg), sid × 21 Days",102%
same,% Inhibition,"BT474 tumors; GW016-200, twice weekly on consecutive days × 3 weeks",58%
same,"Cell growth inhibition, monotherapy",[4],dose-dependent growth inhibition
